US6593306B1, “Methods for modulation and inhibition of telomerase” (Board of Regents, The University of Texas Systems, priority 1995, dated 2003)
Where “and” joins values, the source holds several entries; their conditions need not be identical. Equal values may be shown once.

What was measured:
HeLa cell telomerase = target: T1, HeLa cell telomerase (Homo sapiens, UniProt O14746); assay: HeLa cell telomerase assay; assay type: biochemical; details: for IC50: HeLa cell telomerase
T1 construct: endogenous in cells; host or cells: HeLa cells (human cervical tumor)
T1 sequence (O14746 whole entry): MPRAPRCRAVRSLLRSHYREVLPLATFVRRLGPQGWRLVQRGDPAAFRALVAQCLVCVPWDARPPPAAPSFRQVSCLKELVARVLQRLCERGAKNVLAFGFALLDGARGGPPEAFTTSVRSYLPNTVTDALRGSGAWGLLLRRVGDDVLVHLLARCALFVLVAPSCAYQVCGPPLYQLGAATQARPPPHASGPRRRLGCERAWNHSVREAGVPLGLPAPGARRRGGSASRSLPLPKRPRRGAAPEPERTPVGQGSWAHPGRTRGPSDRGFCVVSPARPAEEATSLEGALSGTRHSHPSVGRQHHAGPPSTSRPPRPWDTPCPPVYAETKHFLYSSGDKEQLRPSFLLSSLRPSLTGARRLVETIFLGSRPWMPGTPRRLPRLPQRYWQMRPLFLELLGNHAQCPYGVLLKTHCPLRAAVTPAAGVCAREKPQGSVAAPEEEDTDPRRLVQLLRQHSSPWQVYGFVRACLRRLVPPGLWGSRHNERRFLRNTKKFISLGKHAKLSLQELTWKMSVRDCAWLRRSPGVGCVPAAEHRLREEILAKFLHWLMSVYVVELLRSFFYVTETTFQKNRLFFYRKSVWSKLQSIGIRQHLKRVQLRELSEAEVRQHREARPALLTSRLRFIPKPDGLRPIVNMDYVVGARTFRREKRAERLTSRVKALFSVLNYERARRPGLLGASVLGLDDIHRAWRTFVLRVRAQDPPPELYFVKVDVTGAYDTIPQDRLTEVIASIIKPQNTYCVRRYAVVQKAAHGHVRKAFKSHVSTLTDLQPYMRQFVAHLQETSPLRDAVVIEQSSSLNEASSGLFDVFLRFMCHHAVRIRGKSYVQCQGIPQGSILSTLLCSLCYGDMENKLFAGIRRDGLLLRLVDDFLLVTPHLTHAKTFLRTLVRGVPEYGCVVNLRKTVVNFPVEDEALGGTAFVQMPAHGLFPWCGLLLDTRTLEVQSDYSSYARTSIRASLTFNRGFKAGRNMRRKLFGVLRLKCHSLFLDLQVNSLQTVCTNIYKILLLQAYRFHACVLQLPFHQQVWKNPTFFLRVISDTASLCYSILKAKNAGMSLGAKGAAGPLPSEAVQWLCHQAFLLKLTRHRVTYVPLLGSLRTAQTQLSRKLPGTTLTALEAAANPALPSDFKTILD
T1 sequence (O60832 whole entry partner): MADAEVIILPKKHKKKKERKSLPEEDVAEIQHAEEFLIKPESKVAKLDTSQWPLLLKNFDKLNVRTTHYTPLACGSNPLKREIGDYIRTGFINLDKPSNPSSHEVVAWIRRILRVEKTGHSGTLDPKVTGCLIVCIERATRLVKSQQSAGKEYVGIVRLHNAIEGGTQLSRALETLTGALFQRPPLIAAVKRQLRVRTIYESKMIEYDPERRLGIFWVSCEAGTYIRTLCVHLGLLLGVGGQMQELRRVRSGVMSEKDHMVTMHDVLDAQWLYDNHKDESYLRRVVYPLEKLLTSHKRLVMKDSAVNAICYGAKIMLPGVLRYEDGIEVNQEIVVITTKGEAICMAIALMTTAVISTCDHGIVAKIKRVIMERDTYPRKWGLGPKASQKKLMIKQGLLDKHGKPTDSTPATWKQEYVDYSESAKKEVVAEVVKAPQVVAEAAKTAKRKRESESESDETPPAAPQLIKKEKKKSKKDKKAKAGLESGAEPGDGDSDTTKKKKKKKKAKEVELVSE
T1 sequence (Q9NPE3 whole entry partner): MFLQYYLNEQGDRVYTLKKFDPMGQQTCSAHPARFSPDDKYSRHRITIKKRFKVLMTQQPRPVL
T1 sequence (Q9NX24 whole entry partner): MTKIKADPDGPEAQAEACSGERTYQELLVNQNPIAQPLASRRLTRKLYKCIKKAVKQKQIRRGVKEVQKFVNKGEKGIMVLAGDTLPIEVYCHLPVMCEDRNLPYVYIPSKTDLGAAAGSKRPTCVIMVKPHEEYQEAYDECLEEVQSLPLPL
T1 sequence (Q9NY12 whole entry partner): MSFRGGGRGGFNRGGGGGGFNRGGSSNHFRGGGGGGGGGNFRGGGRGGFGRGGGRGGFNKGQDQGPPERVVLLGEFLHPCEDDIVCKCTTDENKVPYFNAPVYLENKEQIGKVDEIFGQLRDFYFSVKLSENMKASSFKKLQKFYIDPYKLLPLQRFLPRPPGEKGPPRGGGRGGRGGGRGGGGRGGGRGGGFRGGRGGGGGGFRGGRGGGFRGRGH

[1] = target: T2, human 293 cell telomerase (Homo sapiens, UniProt O14746); assay: Modified telomerase assay (32P-dATP as radiolabeled substrate); assay type: biochemical
T2 construct: with 20 μl of S100 enzyme extract; endogenous in cells; host or cells: 293 cells (transformed human embryonic kidney), S100 extract
T2 sequence (O14746 whole entry): as the sequence (O14746 whole entry) above
T2 sequence (O60832 whole entry partner): as the sequence (O60832 whole entry partner) above
T2 sequence (Q9NPE3 whole entry partner): as the sequence (Q9NPE3 whole entry partner) above
T2 sequence (Q9NX24 whole entry partner): as the sequence (Q9NX24 whole entry partner) above
T2 sequence (Q9NY12 whole entry partner): as the sequence (Q9NY12 whole entry partner) above
Description: (§1) Telomerase was prepared from transformed human embryonic kidney 293 cell line. Human embryonic kidney 293 cells were grown in Joklik's modified MEM niedium (Sigma, St Louis, Mo.) supplemented with 5% fetal bovine serum at 37° C. in a humidified atmosphere with 5% CO2. The cells were subcultured at 1-2×10^5 cells/ml twice a week. When the cells grew to approximately 1×10^6 cells/ml, the cells (˜2×10^9 cells) were centrifuged and transferred into polypropylene centrifuge (50 ml) tubes and kept on ice. The cells were then centrifuged in a (Beckman GS-6R) centrifuge at 1200 RPM for 10 minutes at 4° C., and resuspended in PBS. The washed cells were resuspended in 15 ml Hypobuffer Mix (10 mM HEPES, pH 8.0, 3 mM KCl, 1 mM MgCl2, 1 mM dithiothreitol, 1 μM leupeptin, 0.1 mM PMSF, 10 μM pepstatin, 0.83 μg/ml chymostatin, 0.83 μg/ml antipain, and 43.2 units/ml RNase Guard) and centrifuged. The cell pellets were resuspended in 0.75×volumes Hypobuffer [Hypobuffer Mix+40 units/ml RNase Guard (Pharmacia, N.J.) to allow the cells to swell. The cell suspensions were homogenized to allow the telomerase to “leak” into the cytosolic fraction. The lysate was then poured into new, autoclaved, 3 ml polyallomer ultracentrifuge tubes and centrifuged at 100,000×g for 1 hour at 4° C. A top lipid layer was carefully removed and discarded, and the supernatant was collected. 1/50 of the volume of 5 M NaCl was added to the clear supernatant fluid to achieve a final concentration of 0.1 M. Sterile glycerol was added until the final glycerol concentration was 20%. The enzyme solution was aliquoted into Eppendorf tubes and quickly frozen in liquid nitrogen and stored at −70° C.
In the conventional telomerase assay, the concentrations of both non-radiolabeled nucleotides, dATP and dTTP, are 1 mM, and the concentration of the radiolabeled [^32P]dGTP is 1.56 μM. Because of the high concentration of dATP and dTTP, the standard assay may not be suitable for determining the potential telomerase inhibition of any “Adenine or Thymine” analogs. […] All other chemicals and reaction conditions are identical to the conventional assay.

human cancer telomerase = target: T3, human cancer telomerase (Homo sapiens, UniProt O14746); assay: Nucleoside triphosphate as telomerase substrate, dGTP replaced in modified reaction; assay type: biochemical; details: for incorporation into telomeric ladders, replacing dGTP: modified assay
T3 construct: endogenous in cells; host or cells: human cancer cells
T3 sequence (O14746 whole entry): as the sequence (O14746 whole entry) above
T3 sequence (O60832 whole entry partner): as the sequence (O60832 whole entry partner) above
T3 sequence (Q9NPE3 whole entry partner): as the sequence (Q9NPE3 whole entry partner) above
T3 sequence (Q9NX24 whole entry partner): as the sequence (Q9NX24 whole entry partner) above
T3 sequence (Q9NY12 whole entry partner): as the sequence (Q9NY12 whole entry partner) above

[2] = target: T2, human 293 cell telomerase; assay: Conventional telomerase assay (32P-dGTP as radiolabel substrate); assay type: biochemical; details: for Inhibition of 293 Telomerase, Conventional Assay *dGTP: up to 2 mM
Description: as §1
The assay is based on the ability of the telomerase enzyme in the S100 fractions to recognize an 18-base DNA primer with the DNA sequence (TTAGGG)3. DNA polymerization initiates from the 3′-OH group of the oligonucleotide. By reading from its complementary internal RNA template, telomerase adds a repeated set of 5′-TTAGGG-3′ to the original 18-base primer. Non-synchronous “starts” and “terminations” among the different enzyme complexes result in a degenerative set of different length DNA primers occurring in 6-base increments. Incorporation of [α-^32P]dGTP at the guanine positions of the 5′-TTAGGG-3′ sequence allows the newly synthesized DNA fragments to be visualized by autoradiography. The resulting image forms the characteristic “ladder” structure that is used to identify telomerase activity. The images are scanned using a phosphoimager or laser densitometer (Molecular Dynamics, Sunnyvale, Calif.). Comparisons of the total volumes under the corresponding peaks are used to quantitate the total amount of [α-^32P] incorporated in the primer extension reaction.
The telomerase assay was initiated by mixing 20 μl of 2×reaction mix (100 mM Tris-OAc, pH 8.5, 100 mM KOAc, 10 mM β-mercaptoethanol, 2 mM spermidine, 2 mM MgCl2, 2 mM dATP, 2 mM dTTP, 2 μM oligo primer, potential inhibitors of interest at the appropriate concentration, and 50 μCi [α^32-P]dGTP) with 20 μl of S100 enzyme extract. The reaction mixture was then incubated at 30° C. for 1 hour. The reaction was stopped by incubating sequentially with 50 μl of the stop solution (10 mM Tris pH 7.5, 20 mM EDTA, 0.1 mg/ml RNase A) and 50 μl of deproteinase solution (10 mM Tris pH 7.5, 0.5% SDS, 0.3 mg/ml Proteinase K). The mixture was extracted with 50% phenol/50% chloroform (v/v). The DNA was then precipitated by adding 2.5×volumes of cold EtOH and letting it stand overnight at −70° C. The DNAs were separated on an 8% polyacrylamide/7M urea denaturing gel at 1600 V for 1.5 hours. The gel was dried and exposed to Kodak XAR-5 film to gel in −70° C. Typical autoradiographic exposures required 3-14 days.

human telomerase = target: T4, human telomerase (Homo sapiens, UniProt O14746); assay: Cell-free telomerase inhibition, conventional or modified assay not stated; assay type: biochemical; details: for IC50: Summary values, assay variant not stated, read-out: IC50
T4 construct: telomerase in S100 extracts of transformed human fetal kidney tumor 293 cells (a processive telomerase); endogenous in cells; host or cells: human cells, (S100 extract)
T4 sequence (O14746 whole entry): as the sequence (O14746 whole entry) above
T4 sequence (O60832 whole entry partner): as the sequence (O60832 whole entry partner) above
T4 sequence (Q9NPE3 whole entry partner): as the sequence (Q9NPE3 whole entry partner) above
T4 sequence (Q9NX24 whole entry partner): as the sequence (Q9NX24 whole entry partner) above
T4 sequence (Q9NY12 whole entry partner): as the sequence (Q9NY12 whole entry partner) above
Description: Selected nucleoside triphosphates were tested in one or both of the “conventional” or “modified” telomerase assays described in Methods using the human processive and the CHO non-processive telomerases. Initially, three chain-terminators were selected: 2′,3′-dideoxythymidine triphosphate (ddTTP), 3′-fluoro-2′,3′-dideoxythymidine triphosphate (F-ddTTP), and 3′-azido-2′-, 3′-dideoxythymidine triphosphate (AZ-ddTTP) as prototype agents to investigate whether they could inhibit telomerase activity. The three compounds are dTTP analogs without a 3′-OH group for subsequent chain elongation. They may either incorporate into the telomere sequence and terminate further chain elongation or compete directly with dTTP for the substrate binding site in the telomerase reaction. In either case, telomerase activity is inhibited.

BT-20 = assay: Growth inhibition (MTT), BT-20; assay type: cell-based; details: Homo sapiens, BT-20, 144 h, 6 days
Description: (§2) Exponentially growing cells (1-2×10^3 cells, unless specified otherwise) in 0.1 ml medium were seeded on day 0 in a 96-well microtiter plate. On day 1, 0.1 ml aliquots of medium containing graded concentrations of test analogs were added in duplicate to the cell plates. After incubation at 37° C. in a humidified incubator for 6 days, the plates were centrifuged briefly and 100 μl of the growth medium was removed. Cell cultures were incubated with 50 μl of 3-(4,5-dimethylthiazol-2-yl)-2,5-diphenyl-tetrazolium bromide, (MTT) at a concentration of 1 mg/ml in Dulbecco's phosphate buffered saline (PBS)) for 4 hr at 37° C. The resulting purple formazan precipitate was solubilized with 200 μl of 0.04 N HCl in isopropyl alcohol. Absorbance was monitored in a BioRad Model 3550 Microplate Reader at a test wavelength of 570 nm and a reference wavelength of 630 nm. The absorbance was transferred to a PC 486 computer. The IC50 values were determined by a computer program (EZ-ED50) that fits all the data to the following four-parameter logistic equation: [formula]
(§3) where Amax is the absorbance of control cells, Amin is the absorbance of cells in the presence of highest agent concentration, Y is the observed absorbance, X is the agent concentration, IC50 is the concentration of agent that inhibits the cell growth by 50% of control cells (based on the absorbance) and n is the slope of the curve.
(§4) This is due to the extracellular dephosphorylation of the mono-, di-, or triphosphates by […] or 5′-nucleotidase back to the nucleoside. With this in mind, the inventors used only nucleosides rather than nucleoside triphosphates in these studies. Cultured tumor cells were incubated with selected nucleosides at graded concentrations for 6 days and the growth inhibition was determined by the standard MTT assay.

Raji = assay: Growth inhibition (MTT), Raji; assay type: cell-based; details: Homo sapiens, 144 h, 6 days
Description: as §2, §3, §4

MCF-7 = assay: Growth inhibition (MTT), MCF-7; assay type: cell-based; details: Homo sapiens, MCF7, 144 h, 6 days
Description: as §2, §3, §4

PC3 = assay: Growth inhibition (MTT), PC3; assay type: cell-based; details: Homo sapiens, PC-3, 144 h, 6 days
Description: as §2, §3, §4

SKBR3 = assay: Growth inhibition (MTT), SKBR3; assay type: cell-based; details: Homo sapiens, SK-BR-3, 144 h, 6 days
Description: as §2, §3, §4

DU145 = assay: Growth inhibition (MTT), DU145; assay type: cell-based; details: Homo sapiens, DU-145, 144 h, 6 days
Description: as §2, §3, §4

MDA-231 = assay: Growth inhibition (MTT), MDA-231; assay type: cell-based; details: Homo sapiens, MDA-MB-231, 144 h, 6 days
Description: as §2, §3, §4

COc1nc(N)nc2c1ccn2[C@H]1C[C@H](O)[C@@H](CO)O1 [6-methoxy-7-deaza-2′-deoxyguanosine]
IC50 (HeLa cell telomerase): 4.9 µM

Nc1nc2c(ccn2[C@H]2C[C@H](O)[C@@H](COP(=O)(O)OP(=O)(O)OP(=O)(O)O)O2)c(=O)[nH]1 [NA022, 7-Deaza-2′-Deoxyguanosine-5′-Triphosphate]
IC50 ([1]; [α-32P]dATP 3.12 μM, TTP and dGTP 1 mM): 56 µM and < 100 µM | Inhibition of 293 cell telomerase, modified assay ([1]; competing radioactive nucleotide 3.12 μM [α32P]dATP): concentration-dependent inhibition | Substrate of 293 Telomerase (human cancer telomerase; dGTP analog): Is a substrate Produces short telomere Substrate Inhibition | concentration above which there was no activity (human cancer telomerase; dGTP replaced, 1 mM dTTP, 3.12 μM [α-32P]dATP): > 1.5 mM | remaining activity at 1 µM ([2]; 1.0 μM, read-out: % of Control): 99% | remaining activity at 2.5 µM ([2]; 2.5 μM, read-out: % of Control): 114% | remaining activity at 5 µM ([2]; 5.0 μM, read-out: % of Control): 67% | remaining activity at 7.5 µM ([2]; 7.5 μM, read-out: % of Control): 81% | remaining activity at 10 µM ([2]; 10 μM, read-out: % of Control): 24% | remaining activity at 25 µM ([2]; 25 μM, read-out: % of Control): 27% | remaining activity at 50 µM ([2]; 50 μM, read-out: % of Control): 18% | remaining activity at 75 µM ([2]; 75 μM, read-out: % of Control): 0% | remaining activity at 100 µM ([2]; 100 μM, read-out: % of Control): 0% | IC50 ([2]; [α-32P]dGTP 1.56 μM, TTP and dATP 1 mM): 11 µM | Inhibition of 293 Telomerase, Conventional Assay *dGTP [2]: concentration-dependent inhibition | IC50 (human telomerase): 6.8 µM | times more potent than AZT-TP (human telomerase; from IC50 values): at least 50 times

Nc1nc2c(c(=S)[nH]1)CC=N2 [6-thio-7-deaza guanine]
IC50 (BT-20): 258 µM | IC50 (Raji): 84.1 µM | IC50 (MCF-7): 84.2 µM | IC50 (PC3): 120 µM | IC50 (SKBR3): 74 µM | IC50 (DU145): > 100 µM | IC50 (MDA-231): > 50 µM

Cn1c(N)nc2c(ccn2[C@H]2C[C@H](O)[C@@H](COP(=O)(O)OP(=O)(O)OP(=O)(O)O)O2)c1=O [Compound 7, 1-Methyl-7-deaza-2′-deoxyguanosine Triphosphate]
IC50 (HeLa cell telomerase): 159 µM | incorporation into telomeric ladders, replacing dGTP (human cancer telomerase; 1 mM dTTP, 3.12 μM [α-32P]dATP): incorporation

CSc1nc(N)nc2c1ccn2[C@H]1C[C@H](O)[C@@H](COP(=O)(O)OP(=O)(O)OP(=O)(O)O)O1 [Compound 9, 6-Thiomethyl-7-deaza-2′-deoxyguanosine Triphosphate]
inhibition in a HeLa cell telomerase assay (HeLa cell telomerase; up to 62.5 μM): no inhibition

Cn1c(N)nc2c(ccn2[C@H]2C[C@H](O)[C@@H](CO)O2)c1=O [Compound 5, 1-N-methyl-7-deaza-2′-deoxyguanosine]
IC50 (BT-20): 60.3 µM | IC50 (HeLa cell telomerase): 159 µM | IC50 (Raji): 43.4 µM | IC50 (MCF-7): 57.5 µM | IC50 (PC3): 93.4 µM | IC50 (DU145): > 50 µM | IC50 (MDA-231): > 50 µM

COc1nc(N)nc2c1ccn2[C@H]1C[C@H](O)[C@@H](COP(=O)(O)OP(=O)(O)OP(=O)(O)O)O1 [Compound 6, 6-Methoxy-7-deaza-2′-deoxyguanosine Triphosphate]
IC50 (HeLa cell telomerase): 4.9 µM

Nc1nc2c(ncn2[C@H]2C[C@H](O)[C@@H](COP(O)(=S)OP(=O)(O)OP(=O)(O)O)O2)c(=O)[nH]1 (stereo partly drawn) [NA013, 2′-Deoxyguanosine-5′-O-(1-thiotriphosphate)]
incorporation into telomeric ladders, replacing dGTP (human cancer telomerase; 1 mM dTTP, 3.12 μM [α-32P]dATP): incorporated | remaining activity at 125 µM ([2]; 0.125 mM, read-out: % of Control): 75% | remaining activity at 250 µM ([2]; 0.25 mM, read-out: % of Control): 47% | remaining activity at 500 µM ([2]; 0.5 mM, read-out: % of Control): 0% | remaining activity at 1000 µM ([2]; 1.0 mM, read-out: % of Control): 0% | remaining activity at 2000 µM ([2]; 2.0 mM, read-out: % of Control): 0% | IC50 ([2]; 293 cell telomerase): < 125 µM | Inhibition of 293 Telomerase, Conventional Assay *dGTP [2]: concentration-dependent inhibition | IC50 (human telomerase): 81.5 µM
